# Assay results from US9636324B2, “Use of 15-benzylidence-14-deoxy-11, 12 -dehyroandrographolide derivative in manufacture of medicaments for protecting liver and anti-hepatitis C virus” (Zhengzhou University, priority 2012, dated 2017).
# How the values were obtained:
# [1] = tested on: mice with ConA induced liver damage; assay: ConA induced immunological liver damage model in mice; format: in vivo, Kunming mice; conditions: for protective effect against liver damage induced by ConA (summary): mice, intragastric, 3 days
# Protocol: Kunming mice of clean grade (male, weight 20±2 g, supplied by the Laboratory Animal Center, Henan Province) are randomly divided into groups with 6 mice in each group. Bifendate (Xinchang Pharmaceutical Factory of Zhejiang Pharmaceutical Co., Ltd, 200 mg/kg) is used as positive control, andrographolide (AD) is provided by Furen Pharmaceutical Group Co., Ltd, and the test compounds are synthesized by the inventors with purities higher than 99.0%. Normal control group and model group are intragastrically given 0.5% sodium carboxymethylcellulose (CMC-Na), and test groups are given 0.5% CMC-Na suspensions with AD (0.88 mmol/kg), and low dosage (0.66 mmol/kg) and high dosage (0.88 mmol/kg) of compound A, B and C, respectively. The drugs are given for 3 days. One hour after the last administration, all mice except those in the normal control group are injected with a single dose of ConA (20 mg/kg) through the caudal vein. After 8 h, the eyeball is enucleated to collect blood, which is centrifuged at 3000 rpm for 15 min to separate serum. ALT and AST are tested according to the kit specification, respectively (Nanjing Jiancheng Bioengineering Institute). The left lobe of liver is taken to prepare 10% homogenate using physiological saline, MDA is determined according to the kit specification (Nanjing Jiancheng Bioengineering Institute). To 50 μL liver homogenate is added 2 mL of 0.5 mol/L KOH-methanol solution and kept at 50° C. water bath to isomerize for 20 minutes, then absorbance (A value) is measured at 278 nm, using the A value per mL of homogenate to represent the PGE2 content. Experimental data are expressed as average±standard deviation (X±s), analyzed with SPSS 11.5 statistic software, with P<0.05 meaning significant difference.
# Kunming mice of clean grade (male, weight 20±2 g) are randomly divided into normal group, model group, bifendate (Zhejiang Wanbang Pharmaceutical Co., Ltd) positive control group (200 mg/kg), AD group (0.88 mmol/kg), low dosage group (0.66 mmol/kg) and high dosage (0.88 mmol/kg) group of compound D. ALT, AST, and MDA assay kits are purchased from Nanjing Jiancheng Bioengineering Institute. Other agents, drugs and experimental methods are the same as in EXAMPLE 1.
# In experimental investigation of both models, the following grouping method is used: Kunming mice of clean grade (male, weight 20±2 g) are randomly divided into normal group, model group, bifendate group (200 mg/kg), AD group (0.88 mmol/kg), low dosage group (0.66 mmol/kg) and high dosage group (0.88 mmol/kg) of compound E, with 8 mice in each group. Other agents, drugs and experimental methods are the same as in EXAMPLE 1 and in EXAMPLE 4, respectively.
# [2] = tested on: bovine viral diarrhea virus (BVDV-AV69); assay: CPE observation of effects on cytopathy caused by BVDV in MDBK cells; conditions: for antiviral effect compared with AD / pharmaceutical effect against cytopathy caused by virus compared with ribavirin: BVDV in MDBK cells; for TI value (therapy index, TC50/IC50): MDBK cells, BVDV-AV69, TC50 from MTT, IC50 from CPE
# Protocol: Pharmaceutical effects of drugs of the invention against cytopathy caused by inoculation of BVDV virus are investigated using MDBK (NBL-1) cells (purchased from Chinese Academy of Science's Shanghai Center for Type Culture Collection) and bovine viral diarrhea virus (BVDV-AV69) (purchased from China Institute of Veterinary Drugs Control). Ribavirin (R; Henan RunHong Pharmaceutical Co., Ltd; batch number: E0909604) is used as positive drug control. MDBK cells are prepared as a suspension (1×10^5/mL) in RPMI1640 culture medium which contains 10% in volume fetal bovine serum (Zhejiang Tianhang Biotechnology Co., Ltd; batch number: 100524), 100 μg/mL streptomycin (Shenzheng Huayao Nanfang Pharmaceutical Co., Ltd; batch number: N09081), 100 U/mL penicillin (North China Pharmaceutical Co., Ltd; batch number: E0909604), and are seeded in 96 well plates (Costar, US) at 200 μL/well, placed in an incubator (Binder, Germany) at 37° C. with 5% CO2 to culture the cell. In 24 h when cells grow into a single layer, virus solution of 100 TCID50 (TCID50=10^−2.5) is added and incubated for 1.5 h. Maintenance medium with the drug is added at 200 μL/well after 3×PBS washes.
# After digestion of MDBK cells with trypsin, cells with a concentration of 1×10^5/mL are seeded into 96 well plates at 200 μL/well, placed in an incubator at 37° C. with 5% CO2 for 24 h. After growing into a single layer, cells are attacked using 100 TCID50 (TCID50=10^−2.5) virus and incubated for 1.5 h. The virus-containing maintenance medium is discarded, and cells are washed with PBS, followed by addition of drug-containing maintenance medium with different concentrations, and incubation in 5% CO2 at 37° C. Normal cell control, virus control, drug treatment and ribavirin treatment groups are set. The cytopathy developing status is recorded everyday by observing under an inverted microscope.
# [3] = tested on: mice with carbon tetrachloride induced liver damage; assay: Carbon tetrachloride induced chemical liver damage model in mice; format: in vivo, Kunming mice; conditions: for protective effect against liver damage induced by carbon tetrachloride (summary): mice, intragastric, 3 days
# Protocol: Kunming mice of clean grade (male, weight 20±2 g), after adaptively fed for 3 days, are randomly divided into normal group, model group, bifendate positive control group (200 mg/kg), AD group (0.88 mmol/kg), low dosage group (0.66 mmol/kg) and high dosage group (0.88 mmol/kg) of compound A, B, C and D, with 8 mice in each group. Positive group and each test group are intragastrically given with respective suspension prepared with 0.5% CMC-Na, and normal group and model group are given with 0.5% CMC-Na. The drugs are given for 3 days, and 1 h after the last administration, all mice except those in the normal group are intraperitoneally injected with a single dose of 0.3% carbon tetrachloride in peanut oil (0.1 mL/10 g). After 16 h, the eyeball of the mice in each group is enucleated to collect blood, which is centrifuged at 3000 rpm for 15 min to separate serum. ALT and AST activities are tested respectively (Nanjing Jiancheng Bioengineering Institute). The left lobe of liver is taken to prepare 10% homogenate using physiological saline, MDA (Nanjing Jiancheng Bioengineering Institute) and PGE2 contents are determined. Experimental data are expressed as average±standard deviation (X±s), analyzed with SPSS 11.5 statistic software, with P<0.05 meaning there is a significant difference. Other agents, drugs and experimental methods are the same as in EXAMPLE 1. In experimental investigation of both models, the following grouping method is used: Kunming mice of clean grade (male, weight 20±2 g) are randomly divided into normal group, model group, bifendate group (200 mg/kg), AD group (0.88 mmol/kg), low dosage group (0.66 mmol/kg) and high dosage group (0.88 mmol/kg) of compound E, with 8 mice in each group. Other agents, drugs and experimental methods are the same as in EXAMPLE 1 and in EXAMPLE 4, respectively.
# MDBK (NBL-1) cells = assay: MTT assay for cytotoxicity; format: cell-based, bovine
# Protocol: The drug-containing medium is added and further incubated for 48 h. MTT is added (5 mg/mL) at 20 μL/well and cultured for 4 h, the supernatant is discarded and 150 μL DMSO is added, then the plate is shaken for 10 minutes and the absorbance is determined using a microplate reader using the wavelength 570 nm and a reference wavelength 450 nm. The cell survival rate is calculated after treatment of compounds: cell survival rate (%)=drug group A value/cell control group A value×100%, and the results are shown in FIG. 10. Cell proliferation inhibition rate (%)=100%−survival rate (%), half maximal (50%) toxic concentration (TC50) is calculated according to Reed-Muench method.
# [4] = high dosage 0.88 mmol/kg vs AD 0.88 mmol/kg, P<0.05
# [5] = high dosage 0.88 mmol/kg, P<0.01
# [6] = low dosage 0.66 mmol/kg vs AD 0.88 mmol/kg, P<0.05
# [7] = low dosage 0.66 mmol/kg, P<0.05 (D), P<0.01 (E)
# [8] = low dosage 0.66 mmol/kg, P<0.01
# [9] = dosage groups not distinguished (0.66 and 0.88 mmol/kg), P<0.01
# [10] = dosage groups not distinguished, P<0.01
# [11] = high dosage 0.88 mmol/kg, P<0.05
compound,measurement,setting,value
C=C1CCC2C(C)(COC(=O)CCC(=O)O)C(OC(=O)CCC(=O)O)CCC2(C)C1C=CC1=CC(=Cc2ccc(Cl)cc2)OC1=O (stereo not shown) [Compound E],ALT activity in serum compared with AD group,[1]; [4],notably lower than AD group
same,AST activity in serum compared with AD group,[1]; [4],notably lower than AD group
same,ALT activity in serum vs model group,[1]; [5],notably decrease
same,AST activity in serum vs model group,[1]; [5],notably decrease
same,ALT activity in serum compared with AD group,[1]; [6],notably lower than AD group
same,AST activity in serum compared with AD group,[1]; [6],notably lower than AD group
same,ALT activity in serum vs model group,[1]; [7],notably decrease
same,AST activity in serum vs model group,[1]; [7],notably decrease
same,protective effect against liver damage induced by ConA (summary),[1],significant protective effect
same,antiviral effect compared with AD,[2],better antiviral effect than AD
same,pharmaceutical effect against cytopathy caused by virus compared with ribavirin,[2],better than ribavirin
same,"TI value (therapy index, TC50/IC50)",[2],>250
same,magnitude of decrease in ALT activity compared to AD group,[3]; [4],notably lower
same,magnitude of decrease in AST activity compared to AD group,[3]; [4],notably lower
same,ALT activity in serum vs model group,[3]; [5],notably decrease
same,AST activity in serum vs model group,[3]; [5],notably decrease
same,ALT activity in serum vs model group,[3]; [8],notably decrease
same,AST activity in serum vs model group,[3]; [8],notably decrease
same,protective effect against liver damage induced by carbon tetrachloride (summary),[3],significant protective effect
same,cytotoxicity to MDBK cells,"MDBK (NBL-1) cells; 0-7.5 μmol/L, 48 h",do not show obvious cytotoxcity
same,cytotoxicity to MDBK cells,MDBK (NBL-1) cells; 30 μmol/L,shows no cytotoxcity
"C=C1CCC2C(C)(COC(=O)c3cccnc3)C(OC(=O)c3cccnc3)CCC2(C)C1C=CC1=CC(=Cc2ccc(Cl)cc2)OC1=O (stereo not shown) [Compound D, 15-p-chlorobenzylidene-3,19-nicotinate-14-deoxy-11,12-dehydroandrographolide]",PGE2 content in liver homogenate relative to normal group,[1]; high dosage 0.88 mmol/kg,close to that of normal group
same,"enzyme (ALT, AST) lowering effect compared to AD group",[1]; [4],obviously increased abilities to lower the enzymes
same,ALT activity in serum vs model group,[1]; [5],notably decreased
same,AST activity in serum vs model group,[1]; [5],notably decreased
same,MDA content in liver homogenate vs model group,[1]; [5],significantly reduce
same,PGE2 content in liver homogenate vs model group,[1]; [5],significantly reduce
same,ability against liver lipid peroxidation compared with AD group,"[1]; high dosage 0.88 mmol/kg, P<0.01 (B, C), P<0.05 (D)",obviously increased abilities
same,PGE2 content in liver homogenate vs model group,"[1]; low dosage 0.66 mmol/kg, P<0.05 (A), P<0.01 (D)",significantly reduce
same,ALT activity in serum vs model group,[1]; [7],notably decreased
same,AST activity in serum vs model group,[1]; [7],notably decreased
same,MDA content in liver homogenate vs model group,"[1]; low dosage (printed 0.66 mol/kg), P<0.01",significantly reduce
same,protective effect against liver damage induced by ConA (summary),[1],significant protective effect
same,antiviral effect compared with AD,[2],better antiviral effect than AD
same,pharmaceutical effect against cytopathy caused by virus compared with ribavirin,[2],better than ribavirin
same,"TI value (therapy index, TC50/IC50)",[2],>127.6
same,ALT activity in serum vs model group,[3]; [9],notably suppress the increase
same,AST activity in serum vs model group,[3]; [9],notably suppress the increase
same,MDA level in liver homogenate vs model group,[3]; [10],effectively reduce
same,PGE2 level in liver homogenate vs model group,[3]; [10],effectively reduce
same,magnitude of decrease in ALT activity compared to AD group,[3]; [4],significantly better
same,magnitude of decrease in AST activity compared to AD group,[3]; [4],significantly better
same,PGE2 content compared to AD group,[3]; [11],notably lower
same,ability to reduce lipid peroxide level in liver homogenate compared to AD group,[3]; [11],stronger ability to reduce the lipid peroxide level
same,magnitude of decrease in ALT activity compared to AD group,[3]; [6],significantly better
same,magnitude of decrease in AST activity compared to AD group,[3]; [6],significantly better
same,PGE2 content compared to AD group,"[3]; low dosage 0.66 mmol/kg, P<0.05",notably lower
same,protective effect against liver damage induced by carbon tetrachloride (summary),[3],protective effect
same,cytotoxicity to MDBK cells,"MDBK (NBL-1) cells; 0-7.5 μmol/L, 48 h",do not show obvious cytotoxcity
